This note sets out measurements from patent US7524823B2, “Macrolides” (Basilea Pharmaceutica AG, priority 2005, dated 2009).

Values after ≈ are worked out from the molar mass of the structure shown. Where only a bound is given, the exact number is not on record here.

Holding throughout (type): cell-based
The test system of test [1] is Escherichia coli ATCC 25922. Briefly: MIC by broth microdilution (CAMHB, NCCLS). To be noted: code C: Escherichia coli ATCC 25922. As for the experimental part:
(§1) MIC values for non-anaerobes were obtained by broth microdilution using CAMHB (BBL) according to NCCLS guidelines (National Committee for Clinical Laboratory Standards. Methods for dilution antimicrobial susceptibility tests for bacteria that grow aerobically, 5th ed. Approved standard M7-A6. NCCLS, Wayne, Pa., 2003). Drugs were dissolved in DMSO prior to dispensing into 96-well microtitre plates; the concentration of DMSO in assay wells never exceeded 2% (v/v). CAMHB was supplemented with 5% (v/v) horse serum (Sigma, cat. no. H-1270) in lieu of laked horse blood for cultivation of Streptococcus pneumoniae, and with 5% (v/v) Fildes enrichment (BBL, cat. no. 220810) supernate in lieu of Haemophilus Test Medium and additives for cultivation of Haemophilus influenzae (Pankuch G A, Hoellman D B, Lin G, Bajaksouzian S, Jacobs M R, Appelbaum P C. Activity of HMR 3647 compared to those of five agents against Haemophilus influenzae and Moraxella catarrhalis by MIC determination and time-kill assay. Antimicrob. Agents Chemother. November 1998; 42(11): 3032-4). Activities expressed as the minimal inhibitory concentrations (MICs) (μg/ml) are given in the following Table 3, and the microorganisms used for testing are listed in Table 2 below.
A general note: Broth dilution looks for growth in wells or tubes with falling amounts of substance.

For test [2], the system named is Staphylococcus aureus 1086. Briefly: MIC by broth microdilution (CAMHB, NCCLS). To be noted: code B: Staphylococcus aureus 1086. As for the experimental part:
as §1

The test system of test [3] is Staphylococcus aureus ATCC 29213. Briefly: MIC by broth microdilution (CAMHB, NCCLS). The settings on record: code A: Staphylococcus aureus ATCC 29213. The protocol:
as §1

The test system of test [4] is Streptococcus pneumoniae 1/1. Put plainly: MIC by broth microdilution (CAMHB + 5% horse serum, NCCLS). To be noted: code D: Streptococcus pneumoniae 1/1. The protocol:
as §1

Test [5] has as its system Streptococcus pneumoniae SL199T. Described as above. The settings on record: code E: Streptococcus pneumoniae SL199T. The protocol: as §1
Test [6] has as its system Streptococcus pneumoniae Tupelo. The test is described as above. To be noted: code F: Streptococcus pneumoniae Tupelo. As for the experimental part: as §1
The test system of test [7] is Haemophilus influenzae 12214. Briefly: MIC by broth microdilution (CAMHB + 5% Fildes enrichment, NCCLS). To be noted: code G: Haemophilus influenzae 12214. The protocol: as §1
The test system of test [8] is Haemophilus influenzae QK50. Described as above. To be noted: code H: Haemophilus influenzae QK50. As for the experimental part:
as §1

The test system of test [9] is Propionibacterium acnes EG7NS. Briefly: MIC by anaerobic broth microdilution (WCB, NCCLS). The settings on record: code I: Propionibacterium acnes EG7NS; anaerobic, 35-37° C., 48 h. As for the experimental part: (§2) MIC values towards strains of propionibacteria were obtained by broth microdilution using WCB (Anaerobe Broth MIC, Difco) according to NCCLS guidelines (National Committee for Clinical Laboratory Standards. Methods for anti-microbial susceptibility testing of anaerobic bacteria, 5th ed.; approved standard. NCCLS publication no. M11-A5. NCCLS, Wayne, Pa., 2001). Microtitre plates were loaded into 7-L GENbox anaerobic incubation jars (BioMérieux, cat. no. 96 128) fitted with anaerobic atmosphere generators (BioMérieux, cat. no. 96 124) and a Dry Anaerobic Indicator Strip (BBL, cat. no. 271051). Under these conditions, an O2 concentration <0.1% was achieved by 2.5 h, and a CO2 concentration >15% by 24 h. MIC values were read after incubation at 35-37° C. for 48 h (Table 3).

For test [10], the system named is Propionibacterium acnes SW101T. Put plainly: MIC by anaerobic broth microdilution (WCB, NCCLS). To be noted: code K: Propionibacterium acnes SW101T, 35-37° C., 48 h. The protocol: as §2

Turning to `CC[C@H]1OC(=O)[C@H](C)[C@@H](O[C@H]2C[C@@](C)(OC)[C@@H](O)[C@H](C)O2)[C@H](C)[C@@H](O[C@@H]2O[C@H](C)C[C@H](N(C)C)[C@H]2O)[C@](C)(OC)C[C@@H](C)C(=O)[C@H](C)[C@H]2[C@H](SCCCN3C(=O)c4ccccc4C3=O)C(=O)O[C@@]21C` [Example 15], the MIC in test [1] is over 32 µg/mL; in test [2], “>=32 μg/ml”; in [3], 1 µg/mL (≈ 1.01 µM); in test [4] it was “<=0.06 μg/ml”; in [5] it was 1 µg/mL; in [6], 2 µg/mL. Also, the MIC in test [7] is 4 µg/mL; in [8], 4 µg/mL; in test [9] it was “<=0.06 μg/ml”; in [10], 16 µg/mL (≈ 16.1 µM).

For the molecule `CC[C@H]1OC(=O)[C@H](C)[C@@H](O[C@H]2C[C@@](C)(OC)[C@@H](O)[C@H](C)O2)[C@H](C)[C@@H](O[C@@H]2O[C@H](C)C[C@H](N(C)C)[C@H]2O)[C@](C)(OC)C[C@@H](C)C(=O)[C@H](C)[C@H]2[C@H](SCCCn3cnc4c(N)ncnc43)C(=O)O[C@@]21C` [Example 16], the MIC entry in [1] was “>=32 μg/ml”; in test [2] it was over 32 µg/mL; in test [3], 1 µg/mL (≈ 1.02 µM); in [4], “<=0.06 μg/ml”; in test [5], 0.125 µg/mL; in test [6], 0.5 µg/mL. For the same molecule, the MIC was determined as 2 µg/mL in test [7], 2 µg/mL in test [8], 0.125 µg/mL (≈ 0.128 µM) in test [9] and 1 µg/mL (≈ 1.02 µM) in test [10].

In the case of `CC[C@H]1OC(=O)[C@H](C)[C@@H](O[C@H]2C[C@@](C)(OC)[C@@H](O)[C@H](C)O2)[C@H](C)[C@@H](O[C@@H]2O[C@H](C)C[C@H](N(C)C)[C@H]2O)[C@](C)(OC)C[C@@H](C)C(=O)[C@H](C)[C@H]2[C@H](SCCn3ccc(-c4cccnc4)n3)C(=O)O[C@@]21C` [Example 17], the MIC in test [1] is over 32 µg/mL; in test [2] it was over 32 µg/mL; in test [3], 1 µg/mL (≈ 1.03 µM); in test [4] it was “<=0.06 μg/ml”; in test [5], 0.5 µg/mL; in test [6], 1 µg/mL. The MIC in [7] is 4 µg/mL; in test [8] it was 4 µg/mL; in [9] it was “<=0.06 μg/ml”; in test [10] it was 16 µg/mL (≈ 16.4 µM).

On to `CC[C@H]1OC(=O)[C@H](C)[C@@H](O[C@H]2C[C@@](C)(OC)[C@@H](O)[C@H](C)O2)[C@H](C)[C@@H](O[C@@H]2O[C@H](C)C[C@H](N(C)C)[C@H]2O)[C@](C)(OC)C[C@@H](C)C(=O)[C@H](C)[C@H]2[C@H](SCCn3cncn3)C(=O)O[C@@]21C` [Example 18], for which the MIC in test [1] was 32 µg/mL (≈ 35.6 µM); in test [2], “>=32 μg/ml”; in [3], 1 µg/mL (≈ 1.11 µM); in test [4], “<=0.06 μg/ml”; in test [5], 2 µg/mL; in [6], 4 µg/mL. The MIC in [7] was 2 µg/mL; in [8] it was 2 µg/mL; in test [9], “<=0.06 μg/ml”; in test [10] it was over 32 µg/mL.

As for `CC[C@H]1OC(=O)[C@H](C)[C@@H](O[C@H]2C[C@@](C)(OC)[C@@H](O)[C@H](C)O2)[C@H](C)[C@@H](O[C@@H]2O[C@H](C)C[C@H](N(C)C)[C@H]2O)[C@](C)(OC)C[C@@H](C)C(=O)[C@H](C)[C@H]2[C@H](SCCn3cnc4ccccc43)C(=O)O[C@@]21C` [Example 19], the MIC in [1] was over 32 µg/mL; in test [2], over 32 µg/mL; in test [3], 1 µg/mL (≈ 1.05 µM); in test [4], “<=0.06 μg/ml”; in test [5] it was 0.5 µg/mL; in test [6], 1 µg/mL. Besides, the MIC in [7] is 2 µg/mL; in test [8], 2 µg/mL; in test [9], “<=0.06 μg/ml”; in [10], 4 µg/mL (≈ 4.22 µM).

Regarding `CC[C@H]1OC(=O)[C@H](C)[C@@H](O[C@H]2C[C@@](C)(OC)[C@@H](O)[C@H](C)O2)[C@H](C)[C@@H](O[C@@H]2O[C@H](C)C[C@H](N(C)C)[C@H]2O)[C@](C)(OC)C[C@@H](C)C(=O)[C@H](C)[C@H]2[C@H](SCCn3cnc4cncnc43)C(=O)O[C@@]21C` [Example 20], the MIC in [1] was over 32 µg/mL; in [2], over 32 µg/mL; in test [3] it was 1 µg/mL (≈ 1.05 µM); in [4], “<=0.06 μg/ml”; in test [5], 0.5 µg/mL; in test [6], 1 µg/mL. Moreover, the MIC was 1 µg/mL in test [7], 1 µg/mL in [8], “<=0.06 μg/ml” in test [9] and 8 µg/mL (≈ 8.42 µM) in [10].

Consider `CC[C@H]1OC(=O)[C@H](C)[C@@H](O[C@H]2C[C@@](C)(OC)[C@@H](O)[C@H](C)O2)[C@H](C)[C@@H](O[C@@H]2O[C@H](C)C[C@H](N(C)C)[C@H]2O)[C@](C)(OC)C[C@@H](C)C(=O)[C@H](C)[C@H]2[C@H](SCCn3cc(C)c(=O)[nH]c3=O)C(=O)O[C@@]21C` [Example 21], for which the MIC in test [1] was over 32 µg/mL; in [2], over 32 µg/mL; in [3] it was 2 µg/mL (≈ 2.09 µM); in [4], “<=0.06 μg/ml”; in [5], 0.5 µg/mL; in test [6], 2 µg/mL. The MIC in [7] is 4 µg/mL; in [8] it was 4 µg/mL; in test [9], “<=0.06 μg/ml”; in test [10] it was 4 µg/mL (≈ 4.18 µM).

For the molecule `CC[C@H]1OC(=O)[C@H](C)[C@@H](O[C@H]2C[C@@](C)(OC)[C@@H](O)[C@H](C)O2)[C@H](C)[C@@H](O[C@@H]2O[C@H](C)C[C@H](N(C)C)[C@H]2O)[C@](C)(OC)C[C@@H](C)C(=O)[C@H](C)[C@H]2[C@H](SCC(=O)Nc3ccc(C)c(C)c3)C(=O)O[C@@]21C` [Example 22], the MIC in test [1] is over 32 µg/mL; in [2], 32 µg/mL (≈ 33.2 µM); in test [3] it was 2 µg/mL (≈ 2.07 µM); in test [4], “<=0.06 μg/ml”; in test [5], 8 µg/mL; in [6], 8 µg/mL. The MIC in test [7] was 8 µg/mL; in test [8], 8 µg/mL; in test [9], “<=0.06 μg/ml”; in [10], 32 µg/mL (≈ 33.2 µM).

Take `CC[C@H]1OC(=O)[C@H](C)[C@@H](O[C@H]2C[C@@](C)(OC)[C@@H](O)[C@H](C)O2)[C@H](C)[C@@H](O[C@@H]2O[C@H](C)C[C@H](N(C)C)[C@H]2O)[C@](C)(OC)C[C@@H](C)C(=O)[C@H](C)[C@H]2[C@H](SCC(=O)Nc3ccc(F)cc3F)C(=O)O[C@@]21C` [Example 23]: the MIC in test [1] is over 32 µg/mL; in test [2], 32 µg/mL (≈ 32.9 µM); in test [3] it was 2 µg/mL (≈ 2.06 µM); in [4] it was “<=0.06 μg/ml”; in [5], 2 µg/mL; in [6], 2 µg/mL. Further, the MIC was 4 µg/mL in test [7], 4 µg/mL in test [8], “<=0.06 μg/ml” in test [9] and 32 µg/mL (≈ 32.9 µM) in test [10].

Consider `CC[C@H]1OC(=O)[C@H](C)[C@@H](O[C@H]2C[C@@](C)(OC)[C@@H](O)[C@H](C)O2)[C@H](C)[C@@H](O[C@@H]2O[C@H](C)C[C@H](N(C)C)[C@H]2O)[C@](C)(OC)C[C@@H](C)C(=O)[C@H](C)[C@H]2[C@H](SCC(=O)Nc3ccc(C(=O)OC)c(OC)c3)C(=O)O[C@@]21C` [Example 24], for which the MIC in [1] is over 32 µg/mL; in test [2], “>=32 μg/ml”; in [3] it was 1 µg/mL (≈ 0.975 µM); in test [4], “<=0.06 μg/ml”; in test [5], 4 µg/mL; in [6] it was 8 µg/mL. Moreover, the MIC in [7] was 8 µg/mL; in test [8] it was 8 µg/mL; in test [9] it was “<=0.06 μg/ml”; in [10], over 32 µg/mL.
